“And” between values parts separate entries of the source, which are not always exact repeats. Equal values may be shown once.
Columns and labels:
PPM1D1–420 = biological target: T1, PPM1D1–420 (Homo sapiens, UniProt O15297); assay: p38 MAPK enzymatic assay (LC/MS, dephosphorylation of T180); format: biochemical; details: for P38 Assay, signal relative to 0 nM GSK (=100): PPM1D1-420, individual runs, listed as GSK
T1 construct: PPM1D1–420 was PCR-amplified from the synthesized gene with BsaI sites; His(6)-SUMO (N, cleaved yes); made in house; host or cells: E. coli BL21 (DE3)
T1 sequence (O15297 1-420): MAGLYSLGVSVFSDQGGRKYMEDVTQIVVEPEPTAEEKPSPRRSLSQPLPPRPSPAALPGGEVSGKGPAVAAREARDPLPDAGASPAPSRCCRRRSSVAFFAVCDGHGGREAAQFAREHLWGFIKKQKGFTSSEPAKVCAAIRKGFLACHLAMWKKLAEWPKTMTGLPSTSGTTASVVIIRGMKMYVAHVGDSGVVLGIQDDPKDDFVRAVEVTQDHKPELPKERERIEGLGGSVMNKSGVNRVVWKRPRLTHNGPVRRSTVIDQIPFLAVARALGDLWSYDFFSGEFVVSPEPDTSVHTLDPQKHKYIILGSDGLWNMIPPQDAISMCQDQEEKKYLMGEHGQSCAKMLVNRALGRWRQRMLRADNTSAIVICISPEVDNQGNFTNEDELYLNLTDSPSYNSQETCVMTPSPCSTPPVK
Procedure: (§1) To generate the double phosphorylated form of p38 MAPK for the LC/MS enzymatic PPM1D assay, 20 µM p38 MAPK was incubated with 100 nM MKK6 in 50 mM HEPES pH 7.4, 10 mM ATP, 40 mM MgCl2, and 100 µM TCEP at RT for 2 h. The reaction mixture was diluted 2-fold with 20 mM HEPES pH 7.4, 300 mM NaCl, 100 µM TCEP, and 1 mM MgCl2 and passed over a Superdex 200 26/600 column equilibrated with 20 mM HEPES pH 7.4, 150 mM NaCl, 100 µM TCEP, and 1 mM MgCl2 to remove excess ATP and MKK6 from the phosphorylated p38 MAPK (p38PP) protein. The protein was concentrated and stored in aliquots for single time usage at −80 °C.
(§2) The enzymatic activity of the PPM1D constructs was measured by quantifying the dephosphorylation of the substrate protein p38PP by LC/MS. Assays were run in 384-well plates (Axygen; #P-384-120SQ-C) in a final volume of 80 µL per well. The buffer consisted of 20 mM HEPES, 20 mM NaCl, 20 mM MgCl2 and 0.1 mM TCEP, at a pH of 7.5. The reaction was initiated by addition of the p38PP substrate to a solution containing 10 nM PPM1D to a final concentration of 300 nM for p38PP. The plate was then incubated at room temperature and the reaction quenched after 15 min increments with formic acid to a final concentration of 6% (v/v) up to 120 min. For IC50 measurements, the GSK2830371 compound was pre-incubated with the PPM1D constructs in a 2% DMSO-containing buffer for 10 min prior to the addition of the substrate and the reactions were quenched after 2 h. In both experiments, BSA was added to a final concentration of 0.2 µM during the quench step as a carrier protein and injection control for the LC/MS. The plate was then sealed and spun down at 1500 × g for 1 min prior to LC/MS analysis. Plates were analyzed within the same day of the quench step.
(§3) Substrate and product detection was achieved by multiple-reaction monitoring (MRM) using a Waters Acquity UPLC chromatography system connected to an Xevo TQ-XS mass spectrometer (Waters, Milford, MA). Source parameters were set as follows: polarity ES+, capillary 2.0 kV, cone voltage, 50 V; collision energy, 5 V; cone gas flow, 200 L/h; collision gas flow, 0.16 mL/min; source temperature, 150 °C; desolvation temperature, 500 °C; and desolvation gas flow, 800 L/h. Analytes were separated using an Agilent PLRP-S Reversed-Phase column (5 µm; 2.1 × 50 mm, 300 Å Agilent Technologies, Santa Clara, CA) at 60 °C. Sample storage temperature was set to 15 °C. Mobile phases consisted of 0.1% (v/v) formic acid (Millipore EMSURE) in LC/MS grade water (JTBaker) and 0.1% v/v formic acid in acetonitrile (Honeywell). Initial column conditions were set to […]. Proteins were eluted using a 1.5 min gradient of 5–98% acetonitrile at 0.4 ml/min. MassLynx and TargetLynx software (Waters, version 4.2) were used for sample acquisition and data analysis, respectively. Analytes were quantified by integration of peak areas under the curve using the transitions 941.10 to 941.05 m/z for P38PP (substrate) and 939.10 to 939.09 m/z for P38P (product). Areas were normalized for instrumental variation by dividing by the BSA peak area (1209.23 to 1209.2 m/z transition) measured in the same well.

PPM1DΔhinge = biological target: T2, PPM1DΔhinge (Homo sapiens, UniProt O15297, DEL155-163/G166S/M164G/T165G); assay: as above; format: biochemical; details: for P38 Assay, signal relative to 0 nM GSK (=100): PPM1DΔHinge, individual runs, listed as GSK
T2 construct: PPM1D1–154-GGS-167–420 (PPM1D∆hinge); His(6)-SUMO (N, cleaved yes); made in house; host or cells: E. coli BL21 (DE3)
T2 sequence (O15297 with tags, fused parts or gaps DEL155-163/M164G/T165G/G166S): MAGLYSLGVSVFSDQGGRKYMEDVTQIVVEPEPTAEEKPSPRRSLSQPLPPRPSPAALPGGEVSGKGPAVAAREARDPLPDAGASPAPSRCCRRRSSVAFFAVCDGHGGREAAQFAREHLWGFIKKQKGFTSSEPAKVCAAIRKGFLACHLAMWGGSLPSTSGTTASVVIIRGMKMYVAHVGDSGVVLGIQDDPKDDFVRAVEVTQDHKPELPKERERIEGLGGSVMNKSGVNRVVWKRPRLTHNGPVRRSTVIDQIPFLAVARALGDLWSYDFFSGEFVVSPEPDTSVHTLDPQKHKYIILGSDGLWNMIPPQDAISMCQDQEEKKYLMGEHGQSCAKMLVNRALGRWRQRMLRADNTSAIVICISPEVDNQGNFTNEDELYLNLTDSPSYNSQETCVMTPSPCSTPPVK
Procedure: as §1, §2, §3

## Cc1ncc(Cl)cc1NCc1ccc(C(=O)N[C@@H](CC2CCCC2)C(=O)NC2CC2)s1 [GSK2830371]
PPM1D1–420; PPM1D1–420, full length p38 MAPK substrate, LC/MS
  IC50: ~6 nM
PPM1D1–420; [GSK] 0.49 nM
  P38 Assay, signal relative to 0 nM GSK (=100): 93.1001 and 100 and 88.922
PPM1D1–420; [GSK] 0.98 nM
  P38 Assay, signal relative to 0 nM GSK (=100): 86.1215 and 81.7339 and 63.3381
PPM1D1–420; [GSK] 1.95 nM
  P38 Assay, signal relative to 0 nM GSK (=100): 86.7639 and 71.6152 and 63.7723
PPM1D1–420; [GSK] 3.9 nM
  P38 Assay, signal relative to 0 nM GSK (=100): 51.5439 and 51.2694 and 46.219
PPM1D1–420; [GSK] 7.8 nM
  P38 Assay, signal relative to 0 nM GSK (=100): 29.2083 and 28.1523 and 24.0173
PPM1D1–420; [GSK] 15.6 nM
  P38 Assay, signal relative to 0 nM GSK (=100): 16.4584 and 13.8278 and 11.5309
PPM1D1–420; [GSK] 31.2 nM
  P38 Assay, signal relative to 0 nM GSK (=100): 11.2856 and 7.234 and 5.456
PPM1D1–420; [GSK] 62.5 nM
  P38 Assay, signal relative to 0 nM GSK (=100): 6.81 and 5.822 and 3.842
PPM1D1–420; [GSK] 125 nM
  P38 Assay, signal relative to 0 nM GSK (=100): 6.3041 and 6.187 and 2.5614
PPM1D1–420; [GSK] 250 nM
  P38 Assay, signal relative to 0 nM GSK (=100): 4.442 and 3.236 and 2.029
PPM1D1–420; [GSK] 500 nM
  P38 Assay, signal relative to 0 nM GSK (=100): 3.225 and 4.879 and 3.8956
PPM1DΔhinge; PPM1DΔhinge versus PPM1D1–420
  increase of IC50 in p38 MAPK assay upon hinge deletion: 100 fold
PPM1DΔhinge; [GSK] 1.953 nM
  P38 Assay, signal relative to 0 nM GSK (=100): 100.358 and 104.09 and 99.8488
PPM1DΔhinge; [GSK] 3.906 nM
  P38 Assay, signal relative to 0 nM GSK (=100): 98.4717 and 98.7741 and 94.5709
PPM1DΔhinge; [GSK] 7.813 nM
  P38 Assay, signal relative to 0 nM GSK (=100): 97.8741 and 98.6995 and 87.7716
PPM1DΔhinge; [GSK] 15.625 nM
  P38 Assay, signal relative to 0 nM GSK (=100): 91.5216 and 88.9322 and 63.2104
PPM1DΔhinge; [GSK] 31.25 nM
  P38 Assay, signal relative to 0 nM GSK (=100): 84.0592 and 89.4059 and 56.2735
PPM1DΔhinge; [GSK] 62.5 nM
  P38 Assay, signal relative to 0 nM GSK (=100): 71.608 and 76.249 and 61.6546
PPM1DΔhinge; [GSK] 125 nM
  P38 Assay, signal relative to 0 nM GSK (=100): 62.6262 and 54.2715 and 52.5307
PPM1DΔhinge; [GSK] 250 nM
  P38 Assay, signal relative to 0 nM GSK (=100): 49.6072 and 48.4313 and 45.7898
PPM1DΔhinge; [GSK] 500 nM
  P38 Assay, signal relative to 0 nM GSK (=100): 38.0355 and 40.9669 and 36.3652
PPM1DΔhinge; [GSK] 1000 nM
  P38 Assay, signal relative to 0 nM GSK (=100): 32.2867 and 33.3807 and 27.8112

Reference: publication PMC9246869, “Allosteric inhibition of PPM1D serine/threonine phosphatase via an altered conformational state” (Nature Communications, 2022)
